Where two headings read alike, the source gives them in different places.
Legend:
[1] = set-up: species or system human; conditions: in vivo; for Time post-dose at which Cmax was observed: human
[2] = earlier trial of navitoclax in lymphoid malignancies; cited from earlier work
[3] = for Dose reduction due to TEAEs: 2 patients each; for Discontinuation due to study drug related AEs: all patients; for Drug discontinued due to TEAEs: all patients (venetoclax 11, navitoclax 12 patients)
relapsed/refractory ALL = conditions: https://www.accessdata.fda.gov/drugsatfda_docs/label/2019/021877s010lbl.pdf; cited from earlier work

Compound	Time post-dose at which Cmax was observed [1]	Dose reduction due to TEAEs [3]	Discontinuation due to study drug related AEs [3]	Drug discontinued due to TEAEs [3]	Survival (median OS) reported in studies (relapsed/refractory ALL)	further results
CC1(C)CCC(c2ccc(Cl)cc2)=C(CN2CCN(c3ccc(C(=O)NS(=O)(=O)c4ccc(N[C@H](CCN5CCOCC5)CSc5ccccc5)c(S(=O)(=O)C(F)(F)F)c4)cc3)CC2)C1 [Navitoclax, navitoclax]	4 to 8 h	4.3%	10.6%	25.5%		Impact on venetoclax pharmacokinetics [1]: no significant impact; Maximum tolerated dose [2]: 325 mg/day; Rate of grade 3/4 thrombocytopenia [2]: 52.7%; Recommended phase II dose (RPTD) ([3]; patients weighing <45 kg, in combination with 400 mg adult-equivalent venetoclax): 25 mg; Recommended phase II dose (RPTD) ([3]; patients weighing ≥45 kg (adults), in combination with 400 mg venetoclax): 50 mg
CC1(C)CCC(CN2CCN(c3ccc(C(=O)NS(=O)(=O)c4ccc(NCC5CCOCC5)c([N+](=O)[O-])c4)c(Oc4cnc5[nH]ccc5c4)c3)CC2)=C(c2ccc(Cl)cc2)C1 [Venetoclax, venetoclax]	6 to 8 h	4.3%	12.8%	23.4%		Recommended phase II dose ([3]; adult-equivalent, with navitoclax 50 mg (adults) or 25 mg (<45 kg)): 400 mg; Events of laboratory TLS ([3]; quick ramp-up to 400 mg venetoclax): 2 events
COc1nc(N)nc2c1ncn2[C@@H]1O[C@H](CO)[C@@H](O)[C@@H]1O [nelarabine]					4.7 months	
blinatumomab: bispecific antibody					7.7 months	
inotuzumab ozogamicin					7.7 months	

Source: publication PMC9533326 (Cancer discovery, 2021)
